Reference: ChEMBL document CHEMBL3885861, “Open TG-GATES”

Species on record: Rattus norvegicus
Assay: Open TG-GATES - Regimen: Daily Repeat
Type: toxicity, organism-based, Sprague-Dawley
Set-up: regimen Daily Repeat, gender Male, age 6 weeks
Settings: in vivo, po, 0 mg/kg, route gavage, dose level Control; for APTT / Bas / Eos / Fbg / Hb / Ht / Lym / MCHC / MCV / Mono / Neu / PT / Plat / RBC / Ret / WBC: tissue Blood; for KIDNEY_L / KIDNEY_R / KIDNEY_TOTAL: tissue Kidney; for LIVER: tissue Liver; for ALP / ALT / AST / BUN / CRE / Ca / Cl / DBIL / GLC / IP / K / LDH / Na / PL / RALB / TBIL / TC / TG / TP / gamma-GTP: tissue Plasma

`CS(=O)(=O)Nc1ccc([N+](=O)[O-])cc1Oc1ccccc1` [NIMESULIDE] gave a TERMINAL_BW (72 h, time 3 day) of 220.1 g, an APTT (72 h, time 3 day) of 17.3 s and a Bas (72 h, time 3 day) of 0%. For the same compound, the Eos (72 h, time 3 day) was 1%, the Fbg (72 h, time 3 day) was 199.4 mg/dL and the Hb (72 h, time 3 day) was 13.5 g/dL. It also gave a Ht (72 h, time 3 day) of 39.9%, a Lym (72 h, time 3 day) of 78% and an MCHC (72 h, time 3 day) of 34%. It also gave an MCV (72 h, time 3 day) of 62.8 fL, a Mono (72 h, time 3 day) of 6.2% and a Neu (72 h, time 3 day) of 14.8%. For the same compound, the PT (72 h, time 3 day) was 11.7 s, the Plat (72 h, time 3 day) was 127.5 x10_4/uL and the RBC (72 h, time 3 day) was 635.6 x10_4/ul. It also gave a Ret (72 h, time 3 day) of 9.2%, a WBC (72 h, time 3 day) of 97.8 x10_2/uL and a KIDNEY_L (72 h, time 3 day) of 1 g. It also gave a KIDNEY_R (72 h, time 3 day) of 1 g, a KIDNEY_TOTAL (72 h, time 3 day) of 2 g and an LIVER (72 h, time 3 day) of 10.6 g. The ALP (72 h, time 3 day) was 996 IU/L, the ALT (72 h, time 3 day) was 36.8 IU/L and the AST (72 h, time 3 day) was 63.6 IU/L. The BUN (72 h, time 3 day) was 17.6 mg/dL, the CRE (72 h, time 3 day) was 0.6 mg/dL and the Ca (72 h, time 3 day) was 10.7 mg/dL. For the same compound, the Cl (72 h, time 3 day) was 105 meq/L, the DBIL (72 h, time 3 day) was 0.064 mg/dL and the GLC (72 h, time 3 day) was 203 mg/dL. The IP (72 h, time 3 day) was 7.5 mg/dL, the K (72 h, time 3 day) was 4.7 meq/L and the LDH (72 h, time 3 day) was 81.6 IU/L. The Na (72 h, time 3 day) was 139.4 meq/L, the PL (72 h, time 3 day) was 132.2 mg/dL and the RALB (72 h, time 3 day) was 4 g/dL. For the same compound, the TBIL (72 h, time 3 day) was 0.3 mg/dL, the TC (72 h, time 3 day) was 69 mg/dL and the TG (72 h, time 3 day) was 72.4 mg/dL. The TP (72 h, time 3 day) was 5.5 g/dL, the gamma-GTP (72 h, time 3 day) was 1.4 IU/L and the TERMINAL_BW ([…], time 7 day) was 249.3 g. For the same compound, the TERMINAL_BW ([…], time 14 day) was 309.7 g, the TERMINAL_BW ([…], time 28 day) was 405 g and the APTT ([…], time 7 day) was 18.3 s. It also gave a Bas ([…], time 7 day) of 0%, an Eos ([…], time 7 day) of 1% and a Fbg ([…], time 7 day) of 220 mg/dL. For the same compound, the Hb ([…], time 7 day) was 14.2 g/dL, the Ht ([…], time 7 day) was 41.6% and the Lym ([…], time 7 day) was 77.2%. For the same compound, the MCHC ([…], time 7 day) was 34.1%, the MCV ([…], time 7 day) was 64.8 fL and the Mono ([…], time 7 day) was 9.4%. The Neu ([…], time 7 day) was 12.6%, the PT ([…], time 7 day) was 11.3 s and the Plat ([…], time 7 day) was 117.6 x10_4/uL. It also gave an RBC ([…], time 7 day) of 642.4 x10_4/ul, a Ret ([…], time 7 day) of 7.2% and a WBC ([…], time 7 day) of 134.4 x10_2/uL. The APTT ([…], time 14 day) was 17.4 s, the Bas ([…], time 14 day) was 0% and the Eos ([…], time 14 day) was 1.2%. The Fbg ([…], time 14 day) was 234.2 mg/dL, the Hb ([…], time 14 day) was 14.7 g/dL and the Ht ([…], time 14 day) was 43.2%. For the same compound, the Lym ([…], time 14 day) was 79%, the MCHC ([…], time 14 day) was 34% and the MCV ([…], time 14 day) was 62.7 fL. It also gave a Mono ([…], time 14 day) of 6.2%, a Neu ([…], time 14 day) of 13.8% and a PT ([…], time 14 day) of 11.8 s. It also gave a Plat ([…], time 14 day) of 118.2 x10_4/uL, an RBC ([…], time 14 day) of 689.8 x10_4/ul and a Ret ([…], time 14 day) of 6.7%. The WBC ([…], time 14 day) was 118 x10_2/uL, the APTT ([…], time 28 day) was 17.4 s and the Bas ([…], time 28 day) was 0%. The Eos ([…], time 28 day) was 1.4%, the Fbg ([…], time 28 day) was 213.8 mg/dL and the Hb ([…], time 28 day) was 15.1 g/dL. For the same compound, the Ht ([…], time 28 day) was 44.6%, the Lym ([…], time 28 day) was 80.6% and the MCHC ([…], time 28 day) was 33.9%. For the same compound, the MCV ([…], time 28 day) was 58.6 fL, the Mono ([…], time 28 day) was 5.8% and the Neu ([…], time 28 day) was 12.4%. For the same compound, the PT ([…], time 28 day) was 11.7 s, the Plat ([…], time 28 day) was 126.5 x10_4/uL and the RBC ([…], time 28 day) was 761 x10_4/ul. For the same compound, the Ret ([…], time 28 day) was 2.7%, the WBC ([…], time 28 day) was 120.2 x10_2/uL and the KIDNEY_L ([…], time 7 day) was 1.1 g. The KIDNEY_R ([…], time 7 day) was 1.1 g, the KIDNEY_TOTAL ([…], time 7 day) was 2.2 g and the KIDNEY_L ([…], time 14 day) was 1.4 g. For the same compound, the KIDNEY_R ([…], time 14 day) was 1.3 g, the KIDNEY_TOTAL ([…], time 14 day) was 2.7 g and the KIDNEY_L ([…], time 28 day) was 1.4 g. It also gave a KIDNEY_R ([…], time 28 day) of 1.4 g, a KIDNEY_TOTAL ([…], time 28 day) of 2.8 g and an LIVER ([…], time 7 day) of 11.6 g. For the same compound, the LIVER ([…], time 14 day) was 14.5 g, the LIVER ([…], time 28 day) was 16.5 g and the ALP ([…], time 7 day) was 876.4 IU/L. The ALT ([…], time 7 day) was 35.4 IU/L, the AST ([…], time 7 day) was 64.2 IU/L and the BUN ([…], time 7 day) was 19.2 mg/dL. It also gave a CRE ([…], time 7 day) of 0.6 mg/dL, a Ca ([…], time 7 day) of 10.5 mg/dL and a Cl ([…], time 7 day) of 105.2 meq/L. For the same compound, the DBIL ([…], time 7 day) was 0.03 mg/dL, the GLC ([…], time 7 day) was 197.4 mg/dL and the IP ([…], time 7 day) was 7 mg/dL. The K ([…], time 7 day) was 5 meq/L, the LDH ([…], time 7 day) was 91.8 IU/L and the Na ([…], time 7 day) was 140.4 meq/L. The PL ([…], time 7 day) was 153.8 mg/dL, the RALB ([…], time 7 day) was 4 g/dL and the TBIL ([…], time 7 day) was 0.3 mg/dL. For the same compound, the TC ([…], time 7 day) was 79.2 mg/dL, the TG ([…], time 7 day) was 108.6 mg/dL and the TP ([…], time 7 day) was 5.7 g/dL. For the same compound, the gamma-GTP ([…], time 7 day) was 1.4 IU/L, the ALP ([…], time 14 day) was 898.6 IU/L and the ALT ([…], time 14 day) was 28.4 IU/L. It also gave an AST ([…], time 14 day) of 60 IU/L, a BUN ([…], time 14 day) of 17.4 mg/dL and a CRE ([…], time 14 day) of 0.5 mg/dL. For the same compound, the Ca ([…], time 14 day) was 10.7 mg/dL, the Cl ([…], time 14 day) was 106.4 meq/L and the DBIL ([…], time 14 day) was 0.002 mg/dL. The GLC ([…], time 14 day) was 199.4 mg/dL, the IP ([…], time 14 day) was 7.2 mg/dL and the K ([…], time 14 day) was 4.7 meq/L. For the same compound, the LDH ([…], time 14 day) was 54 IU/L, the Na ([…], time 14 day) was 140.6 meq/L and the PL ([…], time 14 day) was 141 mg/dL. It also gave an RALB ([…], time 14 day) of 4 g/dL, a TBIL ([…], time 14 day) of 0.3 mg/dL and a TC ([…], time 14 day) of 65.4 mg/dL. For the same compound, the TG ([…], time 14 day) was 124.4 mg/dL, the TP ([…], time 14 day) was 5.9 g/dL and the gamma-GTP ([…], time 14 day) was 1 IU/L. For the same compound, the ALP ([…], time 28 day) was 627.4 IU/L, the ALT ([…], time 28 day) was 29 IU/L and the AST ([…], time 28 day) was 61.8 IU/L. For the same compound, the BUN ([…], time 28 day) was 20.2 mg/dL, the CRE ([…], time 28 day) was 0.6 mg/dL and the Ca ([…], time 28 day) was 10.5 mg/dL. The Cl ([…], time 28 day) was 108.2 meq/L, the DBIL ([…], time 28 day) was 0.006 mg/dL and the GLC ([…], time 28 day) was 200 mg/dL. For the same compound, the IP ([…], time 28 day) was 6.6 mg/dL, the K ([…], time 28 day) was 4.7 meq/L and the LDH ([…], time 28 day) was 78 IU/L. For the same compound, the Na ([…], time 28 day) was 143.8 meq/L, the PL ([…], time 28 day) was 152 mg/dL and the RALB ([…], time 28 day) was 4.1 g/dL. For the same compound, the TBIL ([…], time 28 day) was 0.3 mg/dL, the TC ([…], time 28 day) was 73.2 mg/dL and the TG ([…], time 28 day) was 160.4 mg/dL. The TP ([…], time 28 day) was 6 g/dL and the gamma-GTP ([…], time 28 day) was 1.8 IU/L.
